Measured values published in patent publication US12060334B2, “3-substituted phenazine derivatives as antimicrobial agents” (University of Florida Research Foundation, Incorporated, priority 2021, dated 2024).
In brackets after ≈: the same amount, converted by molar mass. Several values for one entry are separate records, joined by “and”; a condition that tells them apart may be missing. Equal entries are not always repeated. Entries after “also recorded” stand apart in the source; their conditions may differ. Where two headings read alike, the source gives them in different places. Marks after values point to notes of the source that are not given here.

Columns and labels:
[1] = pKa determination by UV-vis spectroscopy; assay type: physicochemical
Method: (c) pKa determination of select HP analogues.^36 Dissociation constants (pKa) for select HP analogues were determined using UV-vis spectroscopy and the Henderson-Hasselbalch equation. Buffers were prepared using potassium phosphate monobasic (KH2PO4) and sodium phosphate dibasic ([…]) in a 1:1 solution of water:methanol to achieve a pH range of 4.07 to 9.66 (ammonium hydroxide was added to prepare buffer pH over 9.80). Compounds were added from 10 mM stock solutions in dimethyl sulfoxide (25 μL) to 1975 μL of each buffer to each evaluate analogue to yield a final compound concentration of 125 μM. Full spectral scans were performed from 200 to 800 nm in 2 nm increments to determine λmax values for the protonated phenol (HA) and the deprotonated phenolate species (A^−). The change in absorption at each determined λmax in relation to pH was monitored in each buffer and plotted as absorbance versus pH for each species. The pKa was first estimated by determining the pH of the point of intersection of the two linear curves. The visual estimation was confirmed by plotting pH versus log [A^−/HA]. The resulting plot yielded a linear regression line with a Y-intercept corresponding to a calculated pKa value.

MRSE 35984 = test: MIC susceptibility assay (broth microdilution); settings: Staphylococcus epidermidis, MRSE, 16 h, read-out: MIC MRSE 35984
Method: (§1) (MIC values were further supported by spectrophotometric readings at OD600). The concentration range tested for each HP compound during this study was 0.05 to 50 μM. DMSO served as our vehicle and negative control in each microdilution MIC assay. DMSO was serially diluted with a top concentration of 0.5% v/v.

MRSA-1707 = test: MIC susceptibility assay (broth microdilution); settings: 16 h; for MIC: Staphylococcus aureus, MRSA, read-out: MIC MRSA-1707, planktonic growth inhibition, 16 h, 37° C.
Method: as §1

VRE 700221 = test: MIC susceptibility assay (broth microdilution); settings: Enterococcus, VRE, 16 h, read-out: MIC VRE 700221
Method: The concentration range tested for each HP compound during this study was 0.05 to 50 μM. DMSO served as our vehicle and negative control in each microdilution MIC assay. DMSO was serially diluted with a top concentration of 0.5% v/v.

E. faecalis OG1RF = test: MIC susceptibility assay (broth microdilution); settings: Enterococcus faecalis, 16 h, read-out: MIC E. faecalis OG1RF
Method: as §1

MRSA-44 = test: MIC susceptibility assay (broth microdilution); settings: Staphylococcus aureus, 16 h, read-out: MIC MRSA-44
Method: as §1

J774 MΦ = test: Alamar Blue cytotoxicity assay, J774 macrophages; settings: read-out: J774 MΦ Cytotox. (IC50), 24-h
HepG2 cells = test: Alamar Blue cytotoxicity assay, HepG2; settings: read-out: Hep G2 Cytotox. (IC50), 24-h
human red blood cells = test: Hemolysis assay with red blood cells; settings: human RBCs, 1 hour, 37° C.
Method: Hemolysis assays are used to determine the membrane-lysis activity of a compound, which is of particular interest to this work as membrane-lysing agents (e.g., QACs) can eradicate biofilms.
Cytotoxicity Assay against HEK-293 Cells.^48 The viability of HEK-293 cells was assessed by the MTT assay. The cells were cultured in DMEM medium containing 10% fetal bovine serum and 100 U/mL penicillin and streptomycin. The cells (10^4 cells/well) were seeded onto a 96-well plate and maintained at 37° C. in a humidified incubator under 5% CO2 overnight. […] After incubation at 37° C. for 72 hours, 10 μL of MTT (5 mg/mL) in PBS was added to each well and incubated for 4 hours, followed by the aspiration of the medium. Dimethyl sulfoxide (DMSO, 100 μL) was then added to each well to dissolve the MTT in the wells, and the plate was agitated for 1 hour. The optical density (OD) was measured at 570 nm using a UV/vis microplate spectrophotometer (BioTek). The percent inhibition was calculated as follows: Inhibition (%)=(1−test OD570/non-treated OD570)×100%. The data were analyzed by Origin. Hemolysis Assay with Red Blood Cells. […] The washing was repeated three times with the buffer. In 96-well plate, test compounds were added to the buffer from DMSO stocks. […] The plate was then incubated for 1 hour at 37° C. After incubation, the plate was centrifuged for 5 minutes at 3,500 rpm before 80 μL of the supernatant was transferred to another 96-well plate to obtain an optical density (OD) read at 405 nm. DMSO served as the negative control (0% hemolysis) while Triton X served as the positive control (100% hemolysis) in these experiments. The percent hemolysis was calculated as (OD405 of the compound treated RBCs−OD405 DMSO control)/(OD405 Triton X treated RBCs−OD405 buffer) from three independent experiments.

HeLa cells = test: LDH release assay for HeLa cytotoxicity; settings: read-out: HeLa Cell Cytotox. (IC50), 24-h, tested at 25, 50 and 100 μM
MRSA-1707 biofilms = test: Calgary Biofilm Device (CBD) assay; settings: Staphylococcus aureus, read-out: MRSA-1707 MBC
Mtb H37Ra = test: MIC assay for Mtb H37Ra; settings: seven days, 37° C.
Mtb CDC1551 = test: microbe, parasite or virus in culture; assay type: cell-based, Mycobacterium tuberculosis; settings: Mycobacterium tuberculosis, CDC1551, 120 h
[2] = test system: isdB, sfaA, sbnC, MW0695 transcripts in MRSA-1707 biofilms; test: RT-qPCR of iron uptake genes in MRSA biofilms; settings: 4 h treatment at 1 μM or 1/10×MBEC
[3] = test system: E. faecalis OG1RF biofilms; test: Calgary Biofilm Device (CBD) assay; settings: Enterococcus faecalis, OG1RFBIOFILMS, read-out: E.faecalis OG1RF MBC
MRSE 35984 biofilms = test: Calgary Biofilm Device (CBD) assay; settings: Staphylococcus epidermidis, MRSE, read-out: MRSE 35984 MBC
VRE 700221 biofilms = test: Calgary Biofilm Device (CBD) assay; settings: Enterococcus, read-out: VRE 700221 MBC
[4] = test system: MRSA, MRSE and VRE strains; test: MIC assays, summary statements over several Gram-positive strains
Method: as §1

SMILES	MIC (MRSE 35984)	MIC (MRSA-1707)	MIC (E. faecalis OG1RF)	MIC (MRSA-44)	IC50 (J774 MΦ)	IC50 (HepG2 cells)	% Hemolysis at 200 μM (human red blood cells)	MIC (Mtb CDC1551)	also measured
O=[N+]([O-])c1ccc(O)cc1 [4-nitrophenol, reference compound]									pKa ([1]; UV-vis, 1:1 water:methanol phosphate buffers): 7.52
Oc1cc(Cl)cc2nc3ccccc3nc12 [Compound 18, 3-Chlorophenazin-1-ol]	18.8 µM (≈ 4.34 µg/mL)	25 µM (≈ 5.77 µg/mL)							MIC (VRE 700221): > 50 µM
Cc1ccc2nc3c(O)cc(Cl)cc3nc2c1C [Compound 20, 3-Chloro-6,7-dimethylphenazin-1-ol]			12.5 µM (≈ 3.23 µg/mL)						
Oc1cc(Cl)cc2nc3c(Oc4ccccc4)cccc3nc12 [Compound 22, 3-Chloro-6-phenoxyphenazin-1-ol]	3.13 µM (≈ 1.01 µg/mL)	3.13 µM (≈ 1.01 µg/mL)		3.13 µM (≈ 1.01 µg/mL)					
Oc1cc(Cl)cc2nc3c(Cl)cc(Cl)cc3nc12 [Compound 24, 3,6,8-Trichlorophenazin-1-ol]				0.3 µM (≈ 0.0899 µg/mL)	> 200 µM	> 200 µM	≤1%	2.31 µM (≈ 0.692 µg/mL)	IC50 (HeLa cells): > 100 µM; MBC (MRSA-1707 biofilms): 18.8 µM (≈ 5.63 µg/mL); MIC Mtb H37Ra (Mtb H37Ra): 3.13 µM (≈ 0.938 µg/mL)
Oc1c(Br)c(Cl)c(Br)c2nc3ccccc3nc12 [Compound 28, 2,4-Dibromo-3-chlorophenazin-1-ol]		0.15 µM (≈ 0.0583 µg/mL)	3.13 µM (≈ 1.22 µg/mL)		> 200 µM	> 200 µM	≤1%	4.37 µM (≈ 1.7 µg/mL)	iron starvation / up-regulation of iron uptake genes in MRSA-1707 biofilms [2]: induction of iron starvation; also recorded: up-regulating iron uptake genes; also recorded: induced rapid iron starvation; also recorded: rapidly induce iron starvation; IC50 (HeLa cells): > 100 µM; pKa [1]: 5.93; MIC MRSA-1707 (MRSA-1707; planktonic growth inhibition, 37° C.): 0.15^a μM and 0.15 μM; MBC (MRSA-1707 biofilms): 50 µM (≈ 19.4 µg/mL); MIC Mtb H37Ra (Mtb H37Ra): 6.25 µM (≈ 2.43 µg/mL); MBC [3]: 75 µM (≈ 29.1 µg/mL); MBC (MRSE 35984 biofilms): 12.5 µM (≈ 4.86 µg/mL)
Cc1ccc2nc3c(O)c(Br)c(Cl)c(Br)c3nc2c1C [Compound 30, 2,4-Dibromo-3-chloro-6,7-dimethylphenazin-1-ol]	≤ 0.05 µM		0.2 µM (≈ 0.0833 µg/mL)	0.08 µM (≈ 0.0333 µg/mL)	> 200 µM	> 200 µM	≤1%	3.62 µM (≈ 1.51 µg/mL)	MBC (VRE 700221 biofilms): 0.78 µM (≈ 0.325 µg/mL); MIC ([4]; read-out: MIC against MRSA, MRSE and VRE strains): 0.05 to 0.1 µM (≈ 0.0208 to 0.0417 µg/mL); MICs against all Gram-positive strains in the panel ([4]; result in words): sub-micromolar; MBC (MRSE 35984 biofilms): 3.13 µM (≈ 1.3 µg/mL)
